Experimental data: ChEMBL document CHEMBL3259561, “Search for novel histone deacetylase inhibitors. Part II: design and synthesis of novel isoferulic acid derivatives” (Bioorg Med Chem, 2014)

Assays:
Histone deacetylase = assay: Inhibition of HDAC in human HeLa cell nuclear extract using acetylated lysine as substrate after 30 mins by spectrophotometric analysis; type: protein assay
MDA-MB-231 = assay: cells; type: functional, cell-based; details: Homo sapiens, MDA-MB-231, 48 h
Description: Growth inhibition of human MDA-MB-231 cells after 48 hrs by MTT assay

HeLa = assay: cells; type: functional, cell-based; details: Homo sapiens, 48 h
Description: Growth inhibition of human HeLa cells after 48 hrs by MTT assay

| IC50 (Histone deacetylase) | IC50 (MDA-MB-231) | IC50 (HeLa) | Compound |
| --- | --- | --- | --- |
| 58.24 µM |  |  | COc1ccc(/C=C/C(=O)Nc2ccc(C)cc2N)cc1OCC(=O)Nc1ccc(Br)cc1 |
| 2.96 µM |  |  | COc1ccc(/C=C/C(=O)NO)cc1OCC(=O)Nc1cccc(C(F)(F)F)c1 |
| > 200 µM |  |  | COc1ccc(/C=C/C(=O)Nc2ccccc2N)cc1OCC(=O)Nc1ccc(Cl)c(Cl)c1 |
| 0.73 µM | 5.87 µM | 5.39 µM | COc1ccc(/C=C/C(=O)NO)cc1OCC(=O)Nc1ccc(Br)cc1 |
| 1.37 µM | 1.9 µM | 13.3 µM | COc1ccc(/C=C/C(=O)NO)cc1OCC(=O)Nc1ccc(Cl)c(Cl)c1 |
| 0.94 µM | 3.81 µM | 4.87 µM | COc1ccc(NC(=O)COc2cc(/C=C/C(=O)NO)ccc2OC)cc1 |
| 124.67 µM |  |  | COc1ccc(/C=C/C(=O)Nc2ccc(C)cc2N)cc1OCC(=O)Nc1cc(Br)cc(C(F)(F)F)c1 |
| 164.61 µM |  |  | COc1ccc(NC(=O)COc2cc(/C=C/C(=O)Nc3ccc(C)cc3N)ccc2OC)cc1 |
| > 200 µM |  |  | COc1ccc(/C=C/C(=O)Nc2ccccc2N)cc1OCC(=O)Nc1cc(C(F)(F)F)cc(C(F)(F)F)c1 |
| > 200 µM |  |  | COc1ccc(/C=C/C(=O)Nc2ccccc2N)cc1OCC(=O)Nc1cc(Br)cc(C(F)(F)F)c1 |
| 2.81 µM | 3.41 µM | 6.48 µM | COc1ccc(/C=C/C(=O)NO)cc1OCC(=O)Nc1cccc(F)c1 |
| 15.6 µM | 15.5 µM | 20.5 µM | COc1ccc(/C=C/C(=O)Nc2ccccc2N)cc1OCC(=O)Nc1ccccc1F |
| 4.91 µM |  |  | COc1ccc(/C=C/C(=O)NO)cc1OCC(=O)Nc1cc(C(F)(F)F)cc(C(F)(F)F)c1 |
| 9.04 µM |  |  | COc1ccc(/C=C/C(=O)NO)cc1OCC(=O)Nc1cc(Br)cc(C(F)(F)F)c1 |
| 66.52 µM |  |  | COc1ccc(/C=C/C(=O)Nc2ccccc2N)cc1OCC(=O)Nc1ccc(F)c(Cl)c1 |
| 24.01 µM |  |  | COc1ccc(/C=C/C(=O)Nc2ccccc2N)cc1OCC(=O)Nc1cccc(F)c1 |
| 5.82 µM |  |  | COc1ccc(/C=C/C(=O)NO)cc1OCC(=O)Nc1ccc(F)c(Cl)c1 |
| 49.3 µM |  |  | COc1ccc(NC(=O)COc2cc(/C=C/C(=O)Nc3ccccc3N)ccc2OC)cc1 |
| 22.16 µM |  |  | COc1ccc(/C=C/C(=O)Nc2ccccc2N)cc1OCC(=O)Nc1cccc(C(F)(F)F)c1 |
| 0.57 µM | 15.6 µM | 3.91 µM | COc1ccc(/C=C/C(=O)NO)cc1OCC(=O)Nc1ccccc1F |
| 31.32 µM |  |  | COc1ccc(/C=C/C(=O)Nc2ccc(C)cc2N)cc1OCC(=O)Nc1ccc(F)c(Cl)c1 |
| 29.5 µM |  |  | COc1ccc(/C=C/C(=O)Nc2ccc(C)cc2N)cc1OCC(=O)Nc1ccccc1F |
| > 200 µM |  |  | COc1ccc(/C=C/C(=O)Nc2ccc(C)cc2N)cc1OCC(=O)Nc1cccc(C(F)(F)F)c1 |
| > 200 µM |  |  | COc1ccc(/C=C/C(=O)Nc2ccccc2N)cc1OCC(=O)Nc1ccc(Br)cc1 |
| 56.71 µM |  |  | COc1ccc(/C=C/C(=O)Nc2ccc(C)cc2N)cc1OCC(=O)Nc1cc(C(F)(F)F)cc(C(F)(F)F)c1 |
| 71.02 µM |  |  | COc1ccc(/C=C/C(=O)Nc2ccc(C)cc2N)cc1OCC(=O)Nc1cccc(F)c1 |
| > 200 µM |  |  | COc1ccc(/C=C/C(=O)Nc2ccc(C)cc2N)cc1OCC(=O)Nc1ccc(Cl)c(Cl)c1 |
